One test addresses T1, human μ opiate receptor (Homo sapiens, UniProt P35372).
T1 construct: purchased PerkinElmer Life Sciences, Zaventem, Belgium RB-HOM; host or cells: CHO-K1 cells (membrane preparation)
Kind of test: Affinity for the human μ opiate receptor ([3H]-naloxone displacement, CHO-K1 receptor membrane preparation, SPA). The settings on record: test concentration of 1 μM. The class given is binding. In outline: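 Readout is percent displacement of [3H]-naloxone (1 nmol/l) from human μ receptor in CHO-K1 membranes, measured at 1 μmol/l compound. Incubation runs 90 minutes at room temperature with WGA-SPA beads in Tris-HCl/BSA buffer; non-specific binding is defined with 100 μmol/l naloxone.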
T1 sequence (P35372 whole entry): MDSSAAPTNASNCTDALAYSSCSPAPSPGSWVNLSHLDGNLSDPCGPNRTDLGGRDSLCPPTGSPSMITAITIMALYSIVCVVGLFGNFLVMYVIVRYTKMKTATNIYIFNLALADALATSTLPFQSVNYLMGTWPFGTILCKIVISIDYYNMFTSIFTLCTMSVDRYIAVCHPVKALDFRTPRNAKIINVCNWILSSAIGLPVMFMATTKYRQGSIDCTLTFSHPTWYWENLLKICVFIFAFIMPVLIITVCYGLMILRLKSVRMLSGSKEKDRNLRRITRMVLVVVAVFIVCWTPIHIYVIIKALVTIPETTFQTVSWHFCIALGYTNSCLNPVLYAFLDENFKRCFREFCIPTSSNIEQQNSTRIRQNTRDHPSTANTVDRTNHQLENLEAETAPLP
Take `COc1cc(C)c(S(=O)(=O)N(CCOCC(=O)NCCC2CCC(C(c3ccc(F)cc3)N(C)C)CC2)Cc2ccccc2)c(C)c1` (stereo not shown) [Example 547]: the “μ (binding on the μ opioid receptor, % inhibition)” value is on record as 30%.
Still for that read-out and setting: the figure for `COc1cc(C)c(S(=O)(=O)N2CCC(OCC(=O)NCC3CCC(C(CCc4ccccc4)N(C)C)CC3)CC2)c(C)c1C` (stereo not shown) [Example 546] is 33%; for `COc1ccc(S(=O)(=O)N2CCC(OCC(=O)NCC3CCC(C(CCc4ccccc4)N(C)C)CC3)C2)cc1OC` (stereo not shown) [Example 566] it is 19%; for `COc1ccc(S(=O)(=O)N2CCCC2COCC(=O)NCC2CCC(C(CCc3ccccc3)N(C)C)CC2)cc1` (stereo not shown) [Example 572] it is 29%.
The same measure, in the same setting: with `COc1ccc(S(=O)(=O)N(C)CCOCC(=O)NCC2CCC(C(CCc3ccccc3)N(C)C)CC2)cc1OC` (stereo not shown) [Example 571] the figure was 14%.
Turning to `COc1cc(C)c(S(=O)(=O)N2CCC(CCOCC(=O)NCCC3CCC(C(c4ccc(Cl)cc4)N(C)C)CC3)CC2)c(C)c1C` (stereo not shown) [Example 561], the “μ (binding on the μ opioid receptor, % inhibition)” value came out at 26%.
The same measure, in the same setting: the figure for `COc1ccc(S(=O)(=O)N(C)CCOCC(=O)NCC2CCC(C(CCc3ccccc3)N(C)C)CC2)cc1` (stereo not shown) [Example 550] is 20%.
Consider `COc1cc(C)c(S(=O)(=O)N(CCOCC(=O)NCCC2CCC(C(c3ccc(F)cc3)N(C)C)CC2)Cc2ccccc2)c(C)c1C` (stereo not shown) [Example 554], for which the “μ (binding on the μ opioid receptor, % inhibition)” value was 28%.
Consider `COc1ccc(S(=O)(=O)N(C)CCOCC(=O)NC2CCC(C(c3ccc(F)cc3)N(C)C)CC2)cc1OC` (stereo not shown) [Example 548], for which the “μ (binding on the μ opioid receptor, % inhibition)” value stood at 26%.
Still for that read-out and setting: with `CN(C)C(CCc1ccccc1)C1CCC(CNC(=O)COCC2CCCN(S(=O)(=O)c3ccccc3)C2)CC1` (stereo not shown) [Example 544] the figure was 24%.

The same test, now with this note: test concentration of 1 μM; 1 µM.
Consider `COc1ccc(S(=O)(=O)N2CCCCC2COCC(=O)NCC2CCC(C(c3ccc(F)cc3)N(C)C)CC2)cc1OC` (single isomer, unassigned) [Example 537], for which the “μ (binding on the μ opioid receptor, % inhibition)” value came to 35%.

The test is the same for the next values; noted with them: test concentration of 1 μM; read-out: μ (binding on the μ opioid receptor, % inhibition).
One may read the inhibition as the percentage by which the read-out fell short of the control. Consider `CN(C)C(c1cccs1)C1CCC(CCNC(=O)COCCN(Cc2ccccc2)S(=O)(=O)c2ccccc2)CC1` (stereo not shown) [Example 116, 2-(2-(N-benzylphenylsulfonamido)ethoxy)-N-(2-(4-((dimethylamino)(thiophen-2-yl)methyl)cyclohexyl)ethyl)acetamide], for which the inhibition at 1 µM is 91%.
Still for that read-out and setting: with `COc1ccc(S(=O)(=O)N2CCCCC2COCC(=O)NCC2CCC(C(c3cccs3)N(C)C)CC2)cc1OC` (stereo not shown) [Example 133, 2-((1-(3,4-Dimethoxyphenylsulfonyl)piperidin-2-yl)methoxy)-N-((4-((dimethylamino)(thiophen-2-yl)methyl)cyclohexyl)methyl)acetamide] the figure was 89%; with `COc1ccc(S(=O)(=O)N(C)CCOCC(=O)NCCC2CCC(C(c3cccs3)N(C)C)CC2)cc1` (stereo not shown) [Example 128, N-(2-(4-((dimethylamino)(thiophen-2-yl)methyl)cyclohexyl)ethyl)-2-(2-(4-methoxy-N-methylphenylsulfonamido)ethoxy)acetamide], 91%.
Same read-out and setting: with `COc1cc(C)c(S(=O)(=O)N2CCC(CCOCC(=O)NCC3CCC(C(c4cccs4)N(C)C)CC3)CC2)c(C)c1C` (stereo not shown) [Example 131, N-((4-((dimethylamino)(thiophen-2-yl)methyl)cyclohexyl)methyl)-2-(2-(1-(4-methoxy-2,3,6-trimethylphenylsulfonyl)piperidin-4-yl)ethoxy)acetamide] the figure was 86%.
Take `Cc1ccc(S(=O)(=O)N2CCC(OCC(=O)NCC3CCC(C(c4ccccc4)N(C)C)CC3)C2)cc1` (stereo not shown) [Example 125, N-((4-((dimethylamino)(phenyl)methyl)cyclohexyl)methyl)-2-(1-tosylpyrrolidin-3-yloxy)acetamide]: the inhibition at 1 µM came out at 91%.
Consider `COc1ccc(S(=O)(=O)N2CCCCC2COCC(=O)NCCC2CCC(C(c3cccs3)N(C)C)CC2)c(OC)c1` (stereo not shown) [Example 107, 2-((1-(2,4-dimethoxyphenylsulfonyl)piperidin-2-yl)methoxy)-N-(2-(4-((dimethylamino)(thiophen-2-yl)methyl)cyclohexyl)ethyl)acetamide], for which the inhibition at 1 µM worked out at 92%.
Same read-out and setting: with `CN(C)C(c1cccs1)C1CCC(CCNC(=O)COC2CCCN(S(=O)(=O)c3ccccc3)C2)CC1` (stereo not shown) [Example 100, N-(2-(4-((dimethylamino)(thiophen-2-yl)methyl)cyclohexyl)ethyl)-2-(1-(phenylsulfonyl)piperidin-3-yloxy)acetamide] the figure was 94%; with `COc1cc(C)c(S(=O)(=O)N2CCC(CCOCC(=O)NC3CCC(C(c4cccc(F)c4)N(C)C)CC3)CC2)c(C)c1C` (stereo not shown) [Example 118, N-(4-((dimethylamino)(3-fluorophenyl)methyl)cyclohexyl)-2-(2-(1-(4-methoxy-2,3,6-trimethylphenylsulfonyl)piperidin-4-yl)ethoxy)acetamide], 90%; with `COc1cc(C)c(S(=O)(=O)N(C)CCOCC(=O)NC2CCC(C(c3cccs3)N(C)C)CC2)c(C)c1` (stereo not shown) [Example 111, N-(4-((dimethylamino)(thiophen-2-yl)methyl)cyclohexyl)-2-(2-(4-methoxy-N,2,6-trimethylphenylsulfonamido)ethoxy)acetamide], 92%.
`CN(C)C(c1cccc(F)c1)C1CCC(CNC(=O)COCC2CCCN2S(=O)(=O)c2ccc(Cl)c(Cl)c2)CC1` (stereo not shown) [Example 119, 2-((1-(3,4-dichlorophenylsulfonyl)pyrrolidin-2-yl)methoxy)-N-((4-((dimethylamino)(3-fluorophenyl)methyl)cyclohexyl)methyl)acetamide]: the inhibition at 1 µM is 90%.
With `COc1cc(C)c(S(=O)(=O)N2CCC(OCC(=O)NC3CCC(C(c4cccs4)N(C)C)CC3)C2)c(C)c1` (stereo not shown) [Example 98, N-(4-((dimethylamino)(thiophen-2-yl)methyl)cyclohexyl)-2-(1-(4-methoxy-2,6-dimethylphenylsulfonyl)pyrrolidin-3-yloxy)acetamide], the inhibition at 1 µM came to 91%.
Still for that read-out and setting: the figure for `CN(C)C(c1cccs1)C1CCC(CCNC(=O)COCC2CCCN(S(=O)(=O)c3ccccc3)C2)CC1` (stereo not shown) [Example 115, N-(2-(4-((dimethylamino)(thiophen-2-yl)methyl)cyclohexyl)ethyl)-2-((1-(phenylsulfonyl)piperidin-3-yl)methoxy)acetamide] is 91%.
Consider `CN(C)C(c1ccccc1)C1CCC(CNC(=O)COCCN(C)S(=O)(=O)c2ccc(Cl)cc2)CC1` (stereo not shown) [Example 110, 2-(2-(4-chloro-N-methylphenylsulfonamido)ethoxy)-N-((4-((dimethylamino) (phenyl)methyl)cyclohexyl)methyl)acetamide], for which the inhibition at 1 µM was found to be 87%.
On the same count and under the same terms, the figure for `COc1cc(C)c(S(=O)(=O)N2CCCC(OCC(=O)NCCC3CCC(C(c4cccs4)N(C)C)CC3)C2)c(C)c1C` (stereo not shown) [Example 130, N-(2-(4-((dimethylamino)(thiophen-2-yl)methyl)cyclohexyl)ethyl)-2-(1-(4-methoxy-2,3,6-trimethylphenylsulfonyl)piperidin-3-yloxy)acetamide] is 94%.

The values are drawn from patent US8106055B2, “Substituted amide compounds” (Gruenenthal GmbH, priority 2007, dated 2012).
